# In patent publication US9802897B2, “Amidopyridinol derivative or pharmaceutically acceptable salt thereof and pharmaceutical composition comprising same as active component” (Research Cooperation Foundation of Yeungnam University, priority 2013, dated 2017):
# Read-outs that look alike come from different tables or passages of the source. Marks after values point to notes of the source that are not given here.
# Legend:
# [1] = system: MDA-MB-231 cells; assay: Transwell invasion assay of MDA-MB-231 breast cancer cells; type: cell-based; conditions: MDA-MB-231; for inhibition at 0.01 µM / inhibition at 0.1 µM / inhibition at 1 µM / inhibition at 10 µM: Homo sapiens, read-out: Inhibition rates of invasion of cancer cells (%)
# Protocol: The invasion assay was performed by using the transwell insert (BD FALCON, Bedford, USA) equipped with a 8 μm pore-sized filter. An upper part of the transwell insert filter was coated with 20 μl of matrigel (1 mg/ml) while a bottom part of the same was coated with 30 μl of type I collagen (0.5 mg/ml). The MDA-MB-231 cells (5×10^5 cells/100 μl) were added to the insert chamber, and then, each inhibitor was also added thereto. To induce invasion of the cells, a medium supplemented with 5% FBS was added to each well of the bottom chamber to allow a reaction at a temperature of 37° C. in a cell incubator. 18 hours later, the cells remained after removing the solution in the insert chamber were removed by using a cotton swab, whereas cells at the bottom of the membrane were fixed with methanol and stained with hematoxylin and eosin. The cells present at the membrane were observed through a microscope, and the number of the cells was counted in the selected 5 fields at the resolution of 200×.
# According to the same manner as in Experimental Example 7, inhibitory effects of the amidopyridinol derivatives synthesized in Examples above on invasion of breast cancer cells, e.g., MDA-MB-231, were reviewed. Here, to compare with, inhibitory effects of aminopyridinol derivatives, e.g., 6-amino-2,4,5-trimethylpyridine-3-ol (BJ-1101) and 6-diphenylamino-2,4,5-trimethylpyridine-3-ol (BJ-1201), on invasion of breast cancer cells, e.g., MDA-MB-231, were reviewed.
# [2] = system: cathepsin S; assay: RT-PCR of cathepsin S gene expression in MDA-MB-231 cells; type: cell-based; conditions: for effects for reducing expression of cathepsin S genes (in words): MDA-MB-231
# Protocol: Each compound of the present invention was treated with breast cancer cells (1×10^5 cell/cm^2), e.g., MDA-MB-231, and then, cultured at a temperature of 37° C. for 24 hours in a cell incubator. Afterwards, a trizole reagent was used to extract the entire mRNA therefrom. 24 hours later, the culture medium was removed therefrom, 1 mL of the triazole reagent was added to each well, and then, the cell elusion was transferred to a 1.5 mL tube. After 200 μl of chloroform was added to each sample, the samples were subjected to centrifugation at a temperature of 4° C., at 12,000 g, for 15 minutes. 500 μl of the supernatant obtained therefrom was transferred to a new tube. After 500 μl of isopropylalcohol was added to each sample, the samples were subjected to centrifugation at a temperature of 4° C., at 12,000 g, for 15 minutes. The supernatant obtained therefrom was removed from each sample, and then, the samples were washed with 75% ethanol to clean mRNA while the precipitants were dried. Then, mRNA extracted therefrom was dissolved in RNase-free water, followed by being heated at a temperature of 55° C. for 10 minutes.
# After the RNA quantification, the GoScript™ reverse transcription system (Promega Corporation, Madison, Wis., USA) was used to synthesize cDNA. Here, PCR was performed by using TaKaRa Taq™ (Takara bio Inc., Shiga, Japan), wherein a primer set of cathepsin S consists of a forward primer having SEQ ID NO: 1 (forward sequence: 5′-GCAGTGGCACAGTTGCATAA-3′) and a reverse primer having SEQ ID NO: 2 (reverse sequence: 5′-AGCACCACAAGAACCCATGT-3′). After the PCR product was subjected to agarose gel electrophoresis, the PCR product was stained with ethidium bromide (0.5 μg/ml), thereby obtaining images thereof by using the gel imaging system (UVP, Cambridge, UK). Here, the PCR product was quantified based on glyceraldehyde 3-phosphate dehydrogenase (GAPDH). A GAPDH primer used herein consists of a forward primer having SEQ ID NO: 3 (forward sequence: 5′-GGTGAAGGTCGGAGTCAACG-3′) and a reverse primer having SEQ ID NO: 4 (reverse sequence: 5′-CAAAGTTGTCATGGATGACC-3′).
# Furthermore, to screen other amidopyridinol derivatives that inhibit metastasis of breast cancer cells, inhibitory effects on expression of cathepsin S genes were reviewed by treating 1 μM of each compound, in the same manner as in Experimental Example 9.
# [3] = system: VEGF-induced angiogenesis in chicken chorioallantoic membrane (CAM); assay: CAM analysis of VEGF-induced angiogenesis; type: in vivo; conditions: VEGF (20 ng/CAM) + Compound (0.01 nmol/CAM), number of blood vessels after 3 days; for inhibition in vivo at 0.01 nmol/CAM: Gallus gallus, 72 h, read-out: Inhibitory rates (%)
# Protocol: To confirm inhibitory effects on angiogenesis through in vivo experiments, the chorioallantoic membrane (CAM) analysis was carried out (refer to Nguyen M et al., Microvascular Res., 47, pp 31-40, 1994). A fertilized egg of a chicken was cultured in conditions maintaining a temperature of 37° C. and relative humidity of 55%. On the 10th day of the culturing, a first small hole was made on an air sac part using a hypodermic needle (Green Cross Medical Corp., Korea), and then, a second hole was made on a flat part of the fertilized egg to make a window thereon. Air was removed through the first hole, i.e., the air sac part, and accordingly, the CAM was separated from the shell of the fertilized egg. Then, a grinding wheel (Multipro 395JA, Dremel, Mexico) was used to cut the air sac part, thereby making a window thereon. Next, the whatman filter disk #1 (Whatman Company, USA) was treated with 3 mg/mL of cortisone acetate, dried, and then, wet by VEGF at a concentration of 20 ng/CAM. The filter disk was placed on blood vessels through the window, and then, compounds prepared according to Examples above were each dissolved in DMSO, diluted with PBS, and then, treated for each concentration. After 3 days of treating the compounds, the CAM part on which the filter disk was placed was isolated, and then, washed with PBS. The Stemi SV6 stereomicroscope (Carl Zeiss, Germany) and the Image-Pro Plus software (Media Cybernetics; Silver Spring, Md., USA) were used to capture images of the CAM part, so as to measure the number of the blood vessels and to analyze data obtained therefrom.
# [4] = system: HT-29 cells / U937 cells; assay: TNF-α-induced adhesion of HT-29 intestinal epithelial cells and U937 mononuclear cells; type: cell-based, human; conditions: 1 μM, pre-treated 1 hour, TNF-α 10 ng/ml; for inhibition at 1 µM: Homo sapiens, read-out: Inhibitory rates (%)
# Protocol: HT-29 cells were cultured in a 24-well plate at a concentration of […] cells/cm^2, and meanwhile, amidopyridinol compounds 8a to 8z were pre-treated for 1 hour at each concentration in a serum-free medium supplemented only with 1% PS. Next, 10 ng/ml of TNF-α was treated therewith to allow a reaction at a temperature of 37° C. for 3 hours. After the completion of the reaction, the medium of the HT-29 cells was removed, and then, the HT-29 cells were washed with PBS once. Afterwards, U937 cells, which were treated and reacted with 10 μg/mL of BCECF-AM at a temperature of 37° C. for 30 minutes, were allowed to react with the HT-29 cells at temperature of 37° C. for 1 hour. Then, to remove U937 cells that were not adhered to the HT-29 cells, the reacted cells were washed with PBS twice. In terms of cell dissolution, 0.1% Triton X-100 in 0.1M Tris was allowed to react with the cells for 30 minutes at room temperature, and then, the cells were subjected to quantify by measuring fluorescence thereof using the Fluostar optima microplate reader (BMG Labtechnologies, Germany).
# [5] = Homo sapiens, MDA-MB-231, 24 h, 1 μM, MDA-MB-231, 24 hours, RT-PCR, read-out: Inhibition rate of expression of cathepsin S (%)
# [6] = Homo sapiens, MDA-MB-231, 24 h, screening, 1 μM of each compound, MDA-MB-231, RT-PCR, read-out: Inhibition rate of expression of cathepsin S (%)
# [7] = screening, 1 μM of each compound, MDA-MB-231, RT-PCR
Molecule,inhibition at 0.01 µM [1] [%],inhibition at 0.1 µM [1] [%],inhibition at 1 µM [1] [%],inhibition at 10 µM [1] [%],inhibitory effects on invasion of breast cancer cells (in words) [1],"inhibition at 1 µM [2, 5] [%]",inhibition in vivo at 0.01 nmol/CAM [3] [%],inhibition at 1 µM [4] [%],"inhibition at 1 µM [2, 6] [%]",also measured
"Cc1nc(N)c(C)c(C)c1O [BJ-1101, 6-amino-2,4,5-trimethylpyridine-3-ol]",0.45 ± 15.6,0,0.3 ± 31.8,1.73 ± 22.7,no inhibitory effects on invasion of breast cancer cells,3.3 ± 0.82,–,–,–,effects for reducing expression of cathepsin S genes (in words) [2]: no effects for reducing expression of cathepsin S genes
"Cc1nc(N(c2ccccc2)c2ccccc2)c(C)c(C)c1O [BJ-1201, 6-diphenylamino-2,4,5-trimethylpyridine-3-ol]",2.52 ± 18.7,0,1.78 ± 22.1,1.96 ± 6.78,no inhibitory effects on invasion of breast cancer cells,2.7 ± 0.12,–,–,–,effects for reducing expression of cathepsin S genes (in words) [2]: no effects for reducing expression of cathepsin S genes
"Cc1nc(NC(=O)CCCCl)c(C)c(C)c1O [Compound 8c, N-(5-hydroxy-3,4,6-trimethylpyridine-2-yl)-4-chlorobutaneamide]",–,–,–,–,–,–,70.2 ± 4.6,24.7,27 ± 1.33,–
"Cc1nc(NC(=O)C(C)(C)C)c(C)c(C)c1O [Compound 8f, N-(5-hydroxy-3,4,6-trimethylpyridine-2-yl)pivalamide]",–,–,–,–,–,–,73.2 ± 6.4,37.5,16.4 ± 0.12,–
"Cc1nc(NC(=O)c2ccc(F)cc2)c(C)c(C)c1O [Compound 8l, N-(5-hydroxy-3,4,6-trimethylpyridine-2-yl)-4-fluorobenzamide]",8.57 ± 21.5,11 ± 23.1,33 ± 4.37,49.6 ± 7.82,showed inhibitory effects on invasion of breast cancer cells,0,75.3 ± 6.3,13.7,–,"inhibition at 10 µM ([2]; Homo sapiens, MDA-MB-231, 24 h, 10 μM, MDA-MB-231, 24 hours, RT-PCR, read-out: Inhibition rate of expression of cathepsin S (%)): 12 ± 0.35%"
"Cc1nc(NC(=O)c2ccc(C(C)(C)C)cc2)c(C)c(C)c1O [Compound 8n, N-(5-hydroxy-3,4,6-trimethylpyridine-2-yl)-4-(tert-butyl)benzamide]",–,–,–,–,–,–,74.2 ± 7,22.5,8 ± 0.41,–
"Cc1nc(NC(=O)c2cccc3ccccc23)c(C)c(C)c1O [Compound 8p, N-(5-hydroxy-3,4,6-trimethylpyridine-2-yl)-1-naphthamide]",–,–,–,–,–,–,75.8 ± 5.4,64.9,44 ± 2.47,–
"Cc1nc(NC(=O)c2cccs2)c(C)c(C)c1O [Compound 8q, N-(5-hydroxy-3,4,6-trimethylpyridine-2-yl)thiophene-2-carboxamide]",47.6 ± 18.1,59 ± 10.4,65.8 ± 5.03,67.8 ± 4.25,showed inhibitory effects on invasion of breast cancer cells,57 ± 1.55,74.8 ± 13.2,68.4,–,"inhibition at 0.01 µM ([2]; Homo sapiens, MDA-MB-231, 24 h, 0.01 μM, MDA-MB-231, 24 hours, RT-PCR, read-out: Inhibition rate of expression of cathepsin S (%)): 42 ± 1.21%; inhibition at 0.1 µM ([2]; Homo sapiens, MDA-MB-231, 24 h, 0.1 μM, MDA-MB-231, 24 hours, RT-PCR, read-out: Inhibition rate of expression of cathepsin S (%)): 52 ± 1.68%; effects for reducing expression of cathepsin S genes (in words) [2]: the most effects for reducing expression of cathepsin S genes"
"CCC(CC)C(=O)Nc1nc(C)c(O)c(C)c1C [Compound 8r, 2-ethyl-N-(5-hydroxy-3,4,6-trimethylpyridine-2-yl)butanamide]",–,–,–,–,–,–,–,4.2,3.9 ± 0.22,–
"CCC(C(=O)Nc1nc(C)c(O)c(C)c1C)c1ccccc1 (stereo not shown) [Compound 8t, N-(5-hydroxy-3,4,6-trimethylpyridine-2-yl)-2-phenyl butanamide]",–,–,–,–,–,–,–,–,–,"Inhibitory rates (%) [4]: 23.6* %; Inhibition rate of expression of cathepsin S (%) [2, 7]: 8.2 ± 0.43%"
"Cc1cc(C)c(C(=O)Nc2nc(C)c(O)c(C)c2C)c(C)c1 [Compound 8u, N-(5-hydroxy-3,4,6-trimethylpyridine-2-yl)-2,4,6-trimethylbenzamide]",–,–,–,–,–,–,–,30.4,2.9 ± 0.08,–
"N-(5-hydroxy-3,4,6-trimethylpyridine-2-yl)isobutyryl amide [Compound 8d]",–,–,–,–,–,–,–,–,–,"Inhibitory rates (%) [3]: 53.2 ± 11.5 %; Inhibitory rates (%) [4]: 52.3* %; Inhibition rate of expression of cathepsin S (%) [2, 7]: 33 ± 1.23%"
